Reference: US20250114353A1, “Combination Treatment Regimens - SMARCA2 Degrader With Gemcitabine” (priority 2023, published 2025)

System: NCI-H838 tumors
Assay: NCI-H838 tumor bearing mouse model (SMARCA4-deficient lung cancer xenograft), tumor growth inhibition
Type: in vivo
Details: NOD/SCID female mice, NCI-H838-#5 s.c. xenograft, versus vehicle
Description: NOD/SCID female mice were inoculated subcutaneously with NCI-H838-#5 cells (5×10^6) into the right flank in PBS 0.1 ml mixed with Matrigel.
As used herein, tumor growth inhibition is calculated as follows: Mean % Inhibition=(mean(C)−mean(T))/mean(C)*100%, wherein C is the tumor volume in the control arm, and T is the tumor volume in the treatment arm.
The NCI-H838-#5 tumor cells are maintained in vitro with RPMI1640 medium supplemented with 10% fetal bovine serum at 37° C. in an atmosphere of 5% CO2 in air. The cells in exponential growth phase are harvested and quantitated by cell counter before tumor inoculation. NOD-SCID female mice are inoculated subcutaneously in the right front flank region with NCI-H838-#5 tumor cells (5×10^6) in 0.1 ml of PBS mixed with Matrigel (1:1) for tumor development. The randomization is performed when the mean tumor size reaches approximately 100-150 mm^3.
For the NCI-H838 CDX model, mice are inoculated subcutaneously with the NCI-H838 tumor cells (5×10^6).

SMILES	tumor growth inhibition (TGI) (single agent Formula (I) 100 mg/kg s.c. Q3D)	tumor growth inhibition (TGI) (single agent gemcitabine 100 mg/kg i.v. BIW)
Cc1ncsc1-c1ccc([C@H](C)NC(=O)[C@@H]2C[C@@H](O)CN2C(=O)[C@@H](c2cc(O[C@@H](C)CN3CC[C@@H](N4CCN5c6cc(-c7ccccc7O)nnc6NC[C@H]5C4)C3)no2)C(C)C)cc1 [Formula (I)]	significantly inhibits the growth of NCI-H838 tumors	–
Nc1ccn([C@@H]2O[C@H](CO)[C@@H](O)C2(F)F)c(=O)n1 [gemcitabine, 4-amino-1-((2R,4R,5R)-3,3-difluoro-4-hydroxy-5-(hydroxymethyl)tetrahydrofuran-2-yl)pyrimidin-2(1H)-one]	–	significant tumor growth inhibition
